Patent US6538000B1, “Tricyclic dihydropyrimidine potassium channel openers” (Abbott Laboratories, priority 1999, dated 2003)
One block for each compound: values may come before it.

Key:
potassium channels [1] = molecular target: potassium channels (Sus scrofa, UniProt F1SR11); assay: Functional potassium channel opening activity in isolated bladder strips (field-stimulated twitch); set-up: species or system Landrace pig; conditions: for Emax: pig, read-out: Efficacy (% P1075), Landrace pig bladder strips, maximal efficacy relative to P1075
Method: Compounds of the present invention were evaluated for functional potassium channel opening activity using tissue strips obtained from Landrace pig bladders.
Landrace pig bladders were obtained from female Landrace pigs of 9-30 kg. Landrace pigs were euthanized with an intraperitoneal injection of pentobarbital solution, Somlethal®, J. A. Webster Inc., Sterling Mass. The entire bladder was removed and immediately placed into Krebs Ringer bicarbonate solution (composition, mM: NaCl, 120; NaHCO3, 20; dextrose, 11; KCl, 4.7; CaCl2, 2.5; MgSO4, 1.5; KH2PO4, 1.2; K2EDTA, 0.01, equilibrated with 5% CO2/95% O2 pH 7.4 at 37° C.). Propranolol (0.004 mM) was included in all of the assays to block β-adrenoceptors. The trigonal and dome portions were discarded. Strips 3-5 mm wide and 20 mm long were prepared from the remaining tissue cut in a circular fashion. The mucosal layer was removed. One end was fixed to a stationary glass rod and the other to a Grass FT03 transducer at a basal preload of 1.0 gram. Two parallel platinum electrodes were included in the stationary glass rod to provide field stimulation of 0.05 Hz, 0.5 milli-seconds at 20 volts. This low frequency stimulation produced a stable twitch response of 100-500 centigrams. Tissues were allowed to equilibrate for at least 60 minutes and primed with 80 mM KCl. A control concentration response curve (cumulative) was generated for each tissue using the potassium channel opener P1075 as the control agonist. […] After a 60 minute rinsing period, a concentration response curve (cumulative) was generated for the test agonist in the same fashion as that used for the control agonist P1075. The maximal efficacy of each compounds (expressed as % relative to P1075) is reported. […] Agonist potencies were also expressed as an index relative to P1075. The index was calculated by dividing the ED50 for P1075 by the ED50 for the test agonist in a given tissue. […]

potassium channels [2] = molecular target: potassium channels (Cavia porcellus, UniProt A0A286XYR9); assay: Membrane hyperpolarization (MHP) assay, DiBAC(4)3 FLIPR, primary cultured guinea-pig urinary bladder (GPB) cells; type: cell-based
Chain of potassium channels (Cavia porcellus, UniProt A0A286XYR9) (A0A286XYR9 1-1546): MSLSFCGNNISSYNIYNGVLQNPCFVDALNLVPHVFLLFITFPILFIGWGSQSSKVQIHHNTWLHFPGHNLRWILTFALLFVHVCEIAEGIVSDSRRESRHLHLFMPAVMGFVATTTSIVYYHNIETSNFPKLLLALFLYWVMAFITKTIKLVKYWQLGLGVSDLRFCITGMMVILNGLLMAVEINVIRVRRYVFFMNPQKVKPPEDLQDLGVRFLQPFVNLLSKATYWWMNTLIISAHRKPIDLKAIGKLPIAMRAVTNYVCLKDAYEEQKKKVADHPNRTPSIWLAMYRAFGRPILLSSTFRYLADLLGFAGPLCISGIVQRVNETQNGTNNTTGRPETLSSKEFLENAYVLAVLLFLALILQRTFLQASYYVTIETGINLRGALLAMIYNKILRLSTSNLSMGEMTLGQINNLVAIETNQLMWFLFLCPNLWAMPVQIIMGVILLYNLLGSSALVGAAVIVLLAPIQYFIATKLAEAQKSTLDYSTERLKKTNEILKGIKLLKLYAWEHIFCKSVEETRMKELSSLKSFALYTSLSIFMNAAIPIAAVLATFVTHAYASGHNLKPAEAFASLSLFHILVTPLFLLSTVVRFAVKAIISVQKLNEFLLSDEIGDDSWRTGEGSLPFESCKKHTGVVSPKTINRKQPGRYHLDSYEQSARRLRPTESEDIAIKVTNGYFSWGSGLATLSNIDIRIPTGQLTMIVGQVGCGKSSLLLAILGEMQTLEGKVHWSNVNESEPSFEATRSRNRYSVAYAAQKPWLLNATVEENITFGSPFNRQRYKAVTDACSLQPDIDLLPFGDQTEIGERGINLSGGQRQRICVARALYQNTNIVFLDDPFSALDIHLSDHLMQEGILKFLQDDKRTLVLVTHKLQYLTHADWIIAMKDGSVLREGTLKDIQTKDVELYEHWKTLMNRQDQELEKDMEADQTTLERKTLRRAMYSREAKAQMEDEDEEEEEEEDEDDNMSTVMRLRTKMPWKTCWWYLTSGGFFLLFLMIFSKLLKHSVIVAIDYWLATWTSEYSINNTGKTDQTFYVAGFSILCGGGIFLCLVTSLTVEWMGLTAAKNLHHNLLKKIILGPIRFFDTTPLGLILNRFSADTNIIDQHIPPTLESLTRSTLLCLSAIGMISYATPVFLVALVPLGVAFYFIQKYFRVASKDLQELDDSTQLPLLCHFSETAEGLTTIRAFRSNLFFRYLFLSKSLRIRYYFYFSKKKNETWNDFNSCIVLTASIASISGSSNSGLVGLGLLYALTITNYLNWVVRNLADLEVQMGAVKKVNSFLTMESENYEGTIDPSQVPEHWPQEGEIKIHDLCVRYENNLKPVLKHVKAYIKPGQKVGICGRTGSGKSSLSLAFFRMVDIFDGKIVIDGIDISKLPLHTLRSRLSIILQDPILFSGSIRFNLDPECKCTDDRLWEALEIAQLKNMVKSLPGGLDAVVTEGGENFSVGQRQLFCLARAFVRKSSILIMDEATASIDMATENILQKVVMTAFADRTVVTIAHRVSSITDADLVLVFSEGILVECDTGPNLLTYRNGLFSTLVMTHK
Chain of potassium channels (Cavia porcellus, UniProt A0A286XYR9) (Q9JHJ9 whole entry partner): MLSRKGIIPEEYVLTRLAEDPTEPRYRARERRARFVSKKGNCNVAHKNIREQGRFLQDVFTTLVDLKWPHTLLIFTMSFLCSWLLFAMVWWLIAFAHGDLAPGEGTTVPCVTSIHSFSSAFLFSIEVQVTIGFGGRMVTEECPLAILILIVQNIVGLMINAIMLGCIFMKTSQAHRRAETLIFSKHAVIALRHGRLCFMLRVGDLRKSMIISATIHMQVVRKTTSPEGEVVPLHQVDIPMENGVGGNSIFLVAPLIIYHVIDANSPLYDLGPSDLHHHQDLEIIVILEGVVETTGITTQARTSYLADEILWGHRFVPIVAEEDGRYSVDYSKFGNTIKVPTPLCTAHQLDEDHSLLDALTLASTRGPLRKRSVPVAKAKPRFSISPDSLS
Method: Compounds were evaluated for potassium channel opening activity using primary cultured guinea-pig urinary bladder (GPB) cells.
For the preparation of urinary bladder smooth muscle cells, urinary bladders were removed from male guinea-pigs (Hartley, Charles River, Wilmington, Mass.) weighing 300-400 g and placed in ice-cold Ca^2+-free Krebs solution (Composition, mM: KCl, 2.7; KH2PO4, 1.5; NaCl, 75; Na2HPO4, 9.6; Na2HPO4.7H2O, 8; MgSO4, 2; glucose, 5; HEPES, 10; pH 7.4). Cells were isolated by enzymatic dissociation as previously described with minor modifications in (Klockner, U. and Isenberg, G., Pflugers Arch. 1985, 405, 329-339), hereby incorporated by reference. […]
Functional activity at potassium channels was measured by evaluating changes in membrane potential using the bis-oxonol dye DiBAC(4)3 (Molecular Probes) in a 96-well cell-based kinetic assay system, Fluorescent Imaging Plate Reader (FLIPR) (K. S. Schroeder et al., J. Biomed. Screen., v. 1 pp. 75-81 (1996)), hereby incorporated by reference. […] With increasing membrane potential (for example, K^+ depolarization), the probe further partitions into the cell; this is measured as an increase in fluorescence due to dye interaction with intracellular lipids and proteins. Conversely, decreasing membrane potential (hyperpolarization by potassium channel openers) evokes a decrease in fluorescence. […]

Compound: O=C1CCCC2=C1C(c1ccc(F)c(Br)c1)n1nccc1N2 (single isomer, unassigned; (-)) [Example 15, (−) 9-(3-Bromo-4-fluorophenyl)-5,6,7,9-tetrahydropyrazolo[5,1-b]quinazolin-8(4H)-one]
Emax (potassium channels [1]): 100%

Compound: O=C1CCCC2=C1C(c1ccc(Br)c(F)c1)n1nccc1N2 (stereo not drawn) [Example 1, 9-(4-Bromo-3-fluorophenyl)-5,6,7,9-tetrahydropyrazolo[5,1-b]quinazolin-8(4H)-one]
Emax (potassium channels [1]): 96%

melting point: 160 to 163 °C
Compound: O=C1CSCC2=C1C(c1ccc(F)c(Br)c1)n1nccc1N2 (stereo not drawn) [Example 2, 9-(3-Bromo-4-fluorophenyl)-5,9-dihydro-4H-pyrazolo[1,5-a]thiopyrano[3,4-d]pyrimidin-8(7H)-one]

Maximal Response (% P1075) (potassium channels [2]; maximal steady-state hyperpolarization in GPB cells, normalized to 10 μM P1075 = 100%): 113 % P1075
EC50 (potassium channels [2]; membrane hyperpolarization in GPB cells, concentration that elicits 50% of the maximal response for the test sample): 33 nM
Compound: O=C1CCCC2=C1C(c1ccc(Cl)c(Cl)c1)n1ncc(Br)c1N2 (stereo not drawn) [Example 48, 3-Bromo-9-(3,4-dichlorophenyl)-5,6,7,9-tetrahydropyrazolo[5.1-b]quinazolin-8(4H)-one]

Compound: CCC(C)(C)NC(=NC#N)Nc1cccnc1 [Example P1075, N″-cyano-N-(tert-pentyl)-N′-(3-pyridinyl)guanidine, reference compound]
effect on stimulated twitch / stimulated contractions of the bladder (potassium channels [1]; field stimulation 0.05 Hz, 0.5 ms, 20 volts, P1075 10^−9 to 10^−5 M): completely eliminated the stimulated twitch
